≈ marks a conversion by molar mass, not a printed value. Each block holds one compound with its values, some of them ahead of it.
Key:
Test in all cases: ≥ marks a high value that may be exact or a test limit, other limits are often not marked, values filed in µg/mL are converted to µM
[1] = test system: Bacillus subtilis KCTC 3038
[2] = test system: Candida albicans ATCC 10231
[3] = test system: Cryptococcus neoformans ATCC 34881
[4] = test system: Enterococcus faecalis ATCC 29212
[5] = test system: Escherichia coli ATCC 27325
[6] = test system: Micrococcus luteus ATCC 10240
[7] = test system: Pseudomonas aeruginosa ATCC 27853
[8] = test system: Saccharomyces cerevisiae ATCC 44774
[9] = test system: Salmonella typhimurium KCTC 2370
[10] = test system: Staphylococcus aureus ATCC 15752
[11] = test system: Escherichia coli ATCC 25922
[12] = test system: Klebsiella pneumoniae ATCC 700603
[13] = test system: Micrococcus luteus ATCC 49732
[14] = test system: Neisseria gonorrhoeae ATCC 49226
[15] = test system: Proteus vulgaris ATCC 49132
[16] = test system: Salmonella enterica subsp. enterica serovar Typhimurium ATCC 14028
[17] = test system: Serratia sp. ATCC 39006
[18] = test system: Shigella sonnei ATCC 25931
[19] = test system: Staphylococcus aureus ATCC 25923
[20] = test system: Staphylococcus aureus ATCC 43330
[21] = test system: Staphylococcus epidermidis ATCC 12228
[22] = test system: Staphylococcus saprophyticus ATCC 15305
[23] = test system: Streptococcus agalactiae ATCC 12386
[24] = test system: Bacillus cereus AS1.126
[25] = test system: Enterobacter cloacae CGMCC 1.58
[26] = test system: Enterococcus faecalis CGMCC 1.595
[27] = test system: Enterococcus faecium CGMCC 1.2334
[28] = test system: Escherichia coli AS1.349
[29] = test system: Klebsiella pneumoniae subsp. pneumoniae CGMCC 1.176
[30] = test system: Proteus mirabilis CICC 22931
[31] = test system: Pseudomonas aeruginosa 0108
[32] = test system: Pseudomonas aeruginosa CGMCC 1.860
[33] = test system: Staphylococcus aureus AS1.72
[34] = test system: Staphylococcus epidermidis CICC 23664
[35] = test system: Staphylococcus epidermidis
[36] = test system: Bacillus subtilis ISW 1214
[37] = test system: Escherichia coli BL21
[38] = test system: Escherichia coli W160-37
[39] = test system: Pseudomonas putida NCIM 2102
[40] = test system: Saccharomyces cerevisiae ATCC 8530
[41] = test system: Staphylococcus aureus ATCC 8530

Compound: CC(=O)NCC(=O)N[C@@H](Cc1c[nH]c2ccccc12)C(=O)N[C@@H](CCC(N)=O)C(=O)N[C@@H](CC(C)C)C(=O)N[C@@H](CC(C)C)C(=O)N[C@@H](C)C(=O)N[C@@H](CC(C)C)C(=O)N[C@@H](Cc1cnc[nH]1)C(=O)N[C@@H](CC(C)C)C(=O)N[C@@H](CCC(N)=O)C(=O)N[C@@H](CC(C)C)C(=O)N[C@@H](CC(C)C)C(=O)NCC(=O)N[C@@H](CC(C)C)C(=O)N[C@@H](Cc1cnc[nH]1)C(=O)N[C@@H](CC(C)C)C(=O)N[C@@H](CC(C)C)C(=O)N[C@@H](CCC(N)=O)C(=O)N[C@@H](CC(C)C)C(=O)N[C@@H](C)C(=O)N[C@@H](CC(C)C)C(=O)N[C@@H](CC(C)C)C(=O)N[C@@H](CCC(N)=O)C(=O)N[C@@H](CCCN=C(N)N)C(=O)N[C@@H](CCCN=C(N)N)C(=O)N[C@@H](CCCN=C(N)N)C(N)=O [GWQLLALHLQLLGLHLLQLALLQRRR]
MIC [36]: ≥ 160 µM
MIC [37]: ≥ 160 µM

Compound: CC[C@H](C)[C@@H]1NC(=O)[C@@H]2CCCN2C(=O)[C@H](CC(C)C)NC(=O)[C@@H]2CCCN2C(=O)[C@H]([C@@H](C)CC)NC(=O)[C@H](C)NC(=O)[C@H](Cc2ccc(O)cc2)NC(=O)[C@@H](NC(=O)[C@@H](NC(=O)[C@@H](N)CCCN=C(N)N)C(C)C)CSSC[C@@H](C(N)=O)NC1=O [RVCYAIPLPIC]
MIC [38]: ≥ 48.1 µM
MIC [39]: ≥ 48.1 µM
MIC [40]: ≥ 80.2 µM
MIC [41]: ≥ 40.1 µM

Results, then the compound that gave them:

MIC [1]: ≥ 35.7 µM
MIC [2]: 35.7 µM (≈ 64 µg/mL)
MIC [3]: ≥ 35.7 µM
MIC [4]: > 35.7 µM
MIC [5]: ≥ 35.7 µM
MIC [6]: ≥ 35.7 µM
MIC [7]: > 35.7 µM
MIC [8]: ≥ 35.7 µM
MIC [9]: ≥ 35.7 µM
MIC [10]: ≥ 35.7 µM
Compound: CC(C)[C@H](NC(=O)[C@H](CCCCN)NC(=O)[C@H](CCC(=O)O)NC(=O)[C@H](CCCCN)NC(=O)[C@@H](NC(=O)[C@@H](NC(=O)[C@H](CCC(N)=O)NC(=O)[C@@H](NC(=O)[C@@H](NC(=O)[C@@H]1CCCN1C(=O)[C@H](CCCN=C(N)N)NC(=O)[C@@H](NC(=O)[C@@H](NC(=O)[C@@H](N)CCCN=C(N)N)C(C)C)C(C)C)C(C)C)C(C)C)C(C)C)C(C)C)C(=O)N[C@@H](CCCN=C(N)N)C(=O)O [RVVRPVVQVVKEKVR]

MIC [4]: 0.934 µM (≈ 3.13 µg/mL)
MIC [11]: 0.934 µM (≈ 3.13 µg/mL)
MIC [12]: 2.15 µM (≈ 7.21 µg/mL)
MIC [13]: 0.63 µM (≈ 2.11 µg/mL)
MIC [14]: 2.49 µM (≈ 8.33 µg/mL)
MIC [15]: 2.49 µM (≈ 8.33 µg/mL)
MIC [16]: 2.15 µM (≈ 7.21 µg/mL)
MIC [17]: 0.63 µM (≈ 2.11 µg/mL)
MIC [18]: 0.537 µM (≈ 1.8 µg/mL)
MIC [19]: 1.22 µM (≈ 4.1 µg/mL)
MIC [20]: 3.73 µM (≈ 12.5 µg/mL)
MIC [21]: 2.49 µM (≈ 8.33 µg/mL)
MIC [22]: 1.22 µM (≈ 4.1 µg/mL)
MIC [23]: 1.4 µM (≈ 4.7 µg/mL)
Compound: CC[C@H](C)[C@H](NC(=O)CNC(=O)[C@H](C)NC(=O)[C@H](C)NC(=O)[C@@H](NC(=O)[C@@H](NC(=O)[C@H](CC(N)=O)NC(=O)[C@@H](NC(=O)[C@H](C)NC(=O)[C@@H](NC(=O)[C@@H]1CCCN1C(=O)[C@@H](NC(=O)[C@H](CC(C)C)NC(=O)[C@@H]1CCCN1C(=O)[C@H](Cc1c[nH]c2ccccc12)NC(=O)[C@H](Cc1ccccc1)NC(=O)[C@H](CCCN=C(N)N)NC(=O)[C@H](CCCCN)NC(=O)[C@@H](NC(=O)[C@@H](N)CCCN=C(N)N)C(C)C)C(C)C)C(C)C)[C@@H](C)CC)[C@@H](C)O)C(C)C)C(=O)N[C@@H](CC(N)=O)C(=O)N[C@@H](CC(C)C)C(=O)N[C@@H](Cc1ccc(O)cc1)C(=O)N[C@@H](CCCCN)C(=O)N[C@@H](C)C(=O)N[C@H](C(=O)N[C@@H](CCCN=C(N)N)C(=O)N[C@@H](CCCN=C(N)N)C(=O)N[C@@H](CCCCN)C(N)=O)[C@@H](C)CC [RVKRFWPLVPVAINTVAAGINLYKAIRRK]

MIC [24]: 3.13 µM (≈ 5.32 µg/mL)
MIC [25]: 3.13 µM (≈ 5.32 µg/mL)
MIC [26]: 1.56 µM (≈ 2.65 µg/mL)
MIC [27]: 3.13 µM (≈ 5.32 µg/mL)
MIC [28]: 6.25 µM (≈ 10.6 µg/mL)
MIC [29]: 25 µM (≈ 42.5 µg/mL)
MIC [30]: 6.25 µM (≈ 10.6 µg/mL)
MIC [31]: 12.5 µM (≈ 21.2 µg/mL)
MIC [32]: 6.25 µM (≈ 10.6 µg/mL)
MIC [33]: 3.13 µM (≈ 5.32 µg/mL)
MIC [34]: 1.56 µM (≈ 2.65 µg/mL)
MIC [35]: 3.12 µM (≈ 5.3 µg/mL)
Compound: CC[C@H](C)[C@H](NC(=O)[C@H](CCCCN)NC(=O)[C@H](CO)NC(=O)[C@H](Cc1c[nH]c2ccccc12)NC(=O)[C@@H](NC(=O)[C@H](CCCCN)NC(=O)[C@H](CCCCN)NC(=O)[C@@H](N)Cc1c[nH]c2ccccc12)[C@@H](C)CC)C(=O)N[C@@H](CCCCN)C(=O)N[C@@H](CCCCN)C(=O)N[C@@H](CC(C)C)C(=O)N[C@@H](CC(C)C)C(=O)N[C@@H](CCCCN)C(N)=O [WKKIWSKIKKLLK]
